Source: US20250177299A1, “MOLECULAR COMPLEXING METHOD, FORMULATION AND MANUFACTURING FOR ENHANCED NUTRIENT DELIVERY” (Ingredient Fusion, LLC, priority 2021, published 2025)
Like-named read-outs stand apart in the source and are kept apart here.

Assay: long term formulation trials of natural stability and dispersion aids
Format: physicochemical
From the text: Additionally, popular formularies like lecithin and glycerin were trialed. […] Thus, Glycerin alone was not useful to the invention disclosed herein which requires higher loading rates to achieve improved efficacy and a simplified industrially scalable process.

Compound | stability of formulation in trials | stability of formulation in trials (used as stabilizing/dispersion aid in nano and micro-emulsion formulations, long term trials)
pectin | high microbial activity | –
OCC(O)CO [Glycerin] | – | very low stability unless used in very small quantities
